Reference: patent US12178800B2, “Sulforaphane-melatonin-like compound” (priority 2018, dated 2024)

Key:
[1] = system: mouse tongues; assay: X-ray-induced oral mucositis in mice: oral mucositis score; type: in vivo, ICR mice
Experimental: In a second example for illustrating embodiments of the present invention, six-week-old ICR mice (30-40 g) obtained from Institute of Animal Breeding and Genetics, University of Gottingen, Germany were used. The animals were housed in a room maintained at 22±2° C. under a 12-h light-dark cycle with lights on at 7:00 a.m. Mice were fed a standard rodent diet and had free access to water. In addition, no antibiotic supplements were used. All animal experiments were performed in compliance to The German Animal Welfare Act. The mice (n=20 per group) were anesthetized (pentobarbital sodium, 50 mg/kg body weight, i.p.) and then irradiated. Mice had to be irradiated only at the tip of the tongue, so the rest of the body was shielded with a lead device (thickness, 0.5 mm). The tongue was fixed to the outer surface of the lead device using adhesive tape and irradiated with a single radiation dose of 20 Gy. Radiation was generated using a 150 kV potential (20 mA) X-ray source at a focal distance of 350 mm and beam-hardened by a 1.0-mm aluminum filtration system (MBR-1520R-3; Hitachi, Tokyo, Japan). The dose rate was 5.1 Gy/min. The 6OHM-6-HITC compound was dissolved in a small volume of 1 M NaOH solution. The pH was adjusted to 7 with 1 M HCL. The concentration was adjusted to 3 mg/mL or 15 mg/mL in 0.9% (physiologic) saline solution. The body weight was recorded and the tongues were observed daily after irradiation. 6OHM-6-HITC was injected via the intraperitoneal route 30 min before irradiation. The control group was irradiated but without administering the 6OHM-6-HITC compound.
The scoring of oral mucositis was based on a modification of the method of Sonis et al. To assess the severity of oral mucositis, mice were anesthetized with isoflurane every day. The oral mucositis score was: 0=normal; 1=partial hyperemia, erythema and swelling; 2=overall hyperemia, erythema and swelling; 3=epidermolysis, hyperemia and erythema; 4=extensive epidermolysis and bleeding; 5=bleeding and abscesses. Myeloperoxidase (MPO) activity is a marker for neutrophils in inflamed tissue. MPO activity was measured in mouse tongues using a modification of the method of Chen et al. After mice had been killed by cervical dislocation 12 days after irradiation, tongue samples (n=10 per group) were removed and stored at −70° C. until required for assay. […] MPO activity was measured using a Microplate Reader (NJ-2300; Biotec, Tokyo, Japan) at 450 nm. MPO activity was calculated by measuring the slope of absorbance calibrated using MPO standards (Wako Biochemicals) and expressed as MPO/g tongue. […] TBARS levels were measured using the Microplate Reader (Biotec) at 540 nm. TBARS levels were calculated by measuring the slope of absorbance calibrated using TBARS standards and expressed as TBARS/g tongue. […]

[2] = system: Myeloperoxidase (MPO); assay: Myeloperoxidase (MPO) activity in mouse tongues; type: in vivo, ICR mice; conditions: 12 days after irradiation
From the text: The scoring of oral mucositis was based on a modification of the method of Sonis et al. To assess the severity of oral mucositis, mice were anesthetized with isoflurane every day. The oral mucositis score was: 0=normal; 1=partial hyperemia, erythema and swelling; 2=overall hyperemia, erythema and swelling; 3=epidermolysis, hyperemia and erythema; 4=extensive epidermolysis and bleeding; 5=bleeding and abscesses. Myeloperoxidase (MPO) activity is a marker for neutrophils in inflamed tissue. MPO activity was measured in mouse tongues using a modification of the method of Chen et al. After mice had been killed by cervical dislocation 12 days after irradiation, tongue samples (n=10 per group) were removed and stored at −70° C. until required for assay. […] MPO activity was measured using a Microplate Reader (NJ-2300; Biotec, Tokyo, Japan) at 450 nm. MPO activity was calculated by measuring the slope of absorbance calibrated using MPO standards (Wako Biochemicals) and expressed as MPO/g tongue. […] TBARS levels were measured using the Microplate Reader (Biotec) at 540 nm. TBARS levels were calculated by measuring the slope of absorbance calibrated using TBARS standards and expressed as TBARS/g tongue. […] The number of TUNEL-positive cells on the tongue tips were counted and expressed as a percentage. […] Data were analyzed using one-way analysis of variance (ANOVA) followed by the Steel-Dwass test. […]

COc1cc2c(CCCCN=C=S)c[nH]c2cc1O [6OHM-6-HITC]
significantly lower: total oral mucositis score between day-0 and day-12 vs. control group ([1]; 30 mg/kg i.p.) | total oral mucositis score between day-0 and day-12 vs. control group ([1]; 300 mg/kg i.p.) | oral mucositis score vs. control group ([1]; 300 mg/kg i.p., day-10) | oral mucositis score vs. control group ([1]; 300 mg/kg i.p., day-12) | MPO activity vs. control group ([2]; 30 mg/kg i.p.) | MPO activity vs. control group ([2]; 300 mg/kg i.p.)
